Source: patent US20160331754A1, “THERAPIES FOR TREATING CANCERS” (GILEAD SCIENCES, INC., priority 2014, published 2016)
“And” between values parts separate entries of the source, which are not always exact repeats. Equal values may be shown once.

Experiments:
pS6 Ser235/236 = experiment: Western blot, TPO-activated S6 phosphorylation in UT-7/TPO cells; format: cell-based; conditions: then TPO
Description: In addition, Compound B was examined for the effects on the PI3K signaling pathway by determining the levels of AKT and S6 phosphorylation with or without TPO activation. Two cell lines, BaF3/MPL and UT-7/TPO sensitive or responsive to TPO activation were used. The cells were starved (i.e. growing on medium having less FBS) in […] FBS/RPMI for two hours before treated with 0.1, 1.0, or 2.0 μM of Compound B or vehicle (0.1% DMSO in RPMI) for 2 hours at 37° C. To examine the TPO-activated phosphorylation, the cells were then treated or activated with 50 ng/mL of human recombinant TPO (Peprotech) for 10 minutes at 37° C. The TPO activation or treatment may reflect the conditions in diseased cells as the PI3K pathway is activated by TPO in myelofibrosis. After treating with compound and/or TPO, the cells were collected, lysed by lysis buffer (Cell Signaling), separated by SDS-PAGE, and analyzed by the Western blot using antibodies specific to p-AKT Ser473 or pS6 Ser235/236 (Cell Signaling). The phosphorylation levels in treated cells were calculated and compared to those of untreated cells (i.e. vehicle as negative control).

pS6RP Ser235/236 [1] = experiment: Flow cytometry, basal S6RP phosphorylation in CD34+ progenitor cells from MF patients; format: cell-based, human; conditions: data not shown
Description: (§1) PBMCs were isolated from whole blood of myelofibrosis (MF) patients who had not received treatments (i.e. naïve patients) or received ruxolitinib (i.e. rux-treated patients). The cells were treated with 0.02, 0.2, or 2.0 μM of Compound B or vehicle (0.1% DMSO in 0.1% FBS/RPMI) for 2 hours at 37° C. The cells were then fixed, permeabilized, and stained for FACS analysis. Antibodies specific to p-AKT Ser473 and pS6RP Ser235/236 were used to detect AKT phosphorylation (p-AKT) and S6RP phosphorylation (p-S6RP) in CD34^+/CD3^−/CD14^−/CD19/CD66^− (BD Biosciences) gated cells using flow cytometry. The percentage of basal (i.e. untreated with TPO) AKT and S6RP phosphorylation were normalized to vehicle control. A two-tailed paired t-test (GraphPad Prism) was used to calculate p-values. Values of p<0.05 were considered significant.
(§2) Similar studies were conducted with PI3K inhibitors Compounds C and D. PBMC from MF patients had received ruxolitinib (rux) and MF patient had received Compound A. The cells were treated with Compounds C or D at 0, 20.0, 200.0, 2000.0 nM for 2 hours at 37° C. Cells were treated with TPO for 10 minutes. The percentage of basal p-AKT and p-S6RP levels were normalized to vehicle control and those of TPO-treated were normalized to TPO-treated vehicle control. The PI3Kδ inhibitors Compound C is referred by the chemical names of (S)-2-(1-((9H-purin-6-yl)amino)ethyl)-6-fluoro-3-phenylquinazolin-4(3H)-one.

pS6RP Ser235/236 [2] = experiment: Flow cytometry, TPO-activated S6RP phosphorylation in CD34+ progenitor cells from MF patients; format: cell-based, human; conditions: for p-S6RP (table title: percentage of Annexin-V positive cells): cells from Compound A-treated MF patients; for normalized percentage of TPO-activated S6RP phosphorylation (p-S6RP): TPO-treated vehicle=100
Description: as §1
Also, PBMC cells from naïve or ruxolitinib treated patients were isolated and treated with Compound B and with TPO as described above. The percentage of TPO-activated AKT and S6RP phosphorylation were normalized to those of TPO-treated vehicle (“no TPO” values in Table 4). […] Also, the inhibition to PI3K signaling was dose-dependent to Compound B.
as §2

PI3Kδ = PI3Kδ (Homo sapiens, UniProt O00329); experiment: TR-FRET in vitro biochemical enzyme assay of class I PI3K isoforms
Sequence of PI3Kδ (O00329 whole entry, canonical isoform): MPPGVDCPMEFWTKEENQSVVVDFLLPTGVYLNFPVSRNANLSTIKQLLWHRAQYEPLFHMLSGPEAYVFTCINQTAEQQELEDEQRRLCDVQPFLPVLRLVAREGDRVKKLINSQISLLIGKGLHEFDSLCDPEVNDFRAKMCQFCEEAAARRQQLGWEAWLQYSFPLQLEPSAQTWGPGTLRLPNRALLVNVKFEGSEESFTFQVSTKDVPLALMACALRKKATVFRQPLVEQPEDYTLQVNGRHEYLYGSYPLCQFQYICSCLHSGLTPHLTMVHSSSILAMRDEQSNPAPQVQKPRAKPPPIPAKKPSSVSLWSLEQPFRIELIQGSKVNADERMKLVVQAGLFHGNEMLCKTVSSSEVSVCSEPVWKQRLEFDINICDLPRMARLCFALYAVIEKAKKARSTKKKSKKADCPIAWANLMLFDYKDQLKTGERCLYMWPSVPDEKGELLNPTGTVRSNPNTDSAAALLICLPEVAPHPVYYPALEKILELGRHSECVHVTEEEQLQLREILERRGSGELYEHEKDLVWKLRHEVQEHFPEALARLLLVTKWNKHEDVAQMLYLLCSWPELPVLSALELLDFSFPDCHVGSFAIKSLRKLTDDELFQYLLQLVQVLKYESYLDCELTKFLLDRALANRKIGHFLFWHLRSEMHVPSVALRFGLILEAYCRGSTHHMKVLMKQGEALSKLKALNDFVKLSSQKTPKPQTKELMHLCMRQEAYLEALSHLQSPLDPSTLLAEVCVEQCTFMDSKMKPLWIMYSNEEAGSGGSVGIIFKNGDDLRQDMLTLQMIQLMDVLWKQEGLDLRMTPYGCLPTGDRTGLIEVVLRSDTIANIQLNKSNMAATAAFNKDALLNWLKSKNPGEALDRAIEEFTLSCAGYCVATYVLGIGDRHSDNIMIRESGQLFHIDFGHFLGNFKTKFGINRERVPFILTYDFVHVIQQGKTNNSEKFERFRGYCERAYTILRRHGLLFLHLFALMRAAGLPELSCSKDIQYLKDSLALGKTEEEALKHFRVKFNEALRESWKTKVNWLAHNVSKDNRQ
Sequence of PI3Kδ (P27986 whole entry partner, canonical isoform): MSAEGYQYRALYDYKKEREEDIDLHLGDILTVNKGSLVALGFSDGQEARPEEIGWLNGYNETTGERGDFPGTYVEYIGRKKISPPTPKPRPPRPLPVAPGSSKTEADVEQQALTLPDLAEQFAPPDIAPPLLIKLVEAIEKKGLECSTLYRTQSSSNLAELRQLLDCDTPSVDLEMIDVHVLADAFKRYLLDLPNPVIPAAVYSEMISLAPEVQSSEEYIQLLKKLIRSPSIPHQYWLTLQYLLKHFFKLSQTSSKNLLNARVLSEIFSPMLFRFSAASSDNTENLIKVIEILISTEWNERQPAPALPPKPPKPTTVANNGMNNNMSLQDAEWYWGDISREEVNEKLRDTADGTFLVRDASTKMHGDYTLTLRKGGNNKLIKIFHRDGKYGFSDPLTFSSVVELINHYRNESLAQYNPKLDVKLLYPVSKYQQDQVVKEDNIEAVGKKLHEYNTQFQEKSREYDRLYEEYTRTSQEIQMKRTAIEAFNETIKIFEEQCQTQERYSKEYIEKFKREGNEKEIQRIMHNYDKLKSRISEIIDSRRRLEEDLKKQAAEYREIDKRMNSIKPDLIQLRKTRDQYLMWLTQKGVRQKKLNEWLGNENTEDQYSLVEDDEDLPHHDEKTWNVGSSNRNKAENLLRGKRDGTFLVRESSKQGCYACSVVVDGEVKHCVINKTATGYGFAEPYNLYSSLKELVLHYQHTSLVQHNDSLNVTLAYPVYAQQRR
Description: The effects of Compound B on the activities of class I PI3K isoforms were measured using an in vitro biochemical enzyme assay at steady-state concentrations of adenosine triphosphate (ATP). Compound B is (S)-2-(1-((9H-purin-6-yl)amino)propyl)-5-fluoro-3-phenylquinazolin-4(3H)-one as described above.
A time resolved fluorescence resonance energy transfer (TR-FRET) assay was used to monitor the formation of […] (PIP3) molecule, as it competed with fluorescently labeled PIP3 for binding to the GRP-1 pleckstrin homology domain protein.

autologous B cells = experiment: Whole blood (WB) autologous B-cell depletion assay; format: cell-based
Description: Further, whole blood (WB) autologous B-cell depletion and cell-death induction assays were conducted as described in Mossner et al., Blood 115:4393-402, 2010. For cell death assay: Ri-1 DLBCL cells were seeded at 15,000 cells/well in 96-well plates. Cells were preincubated with Compound B or DMSO for 1 hour before the addition of antibody. Plates were incubated at 37° C. in a humidified CO2 chamber for 3 days. Cells were washed once with PBS and treated with Accutase for 15 minutes before being stained with Guava Nexin® reagent and analyzed on the Guava EasyCyte flow cytometer (Merck Millipore).
The percentage of deplete autologous B cells in a whole blood assay may represent the antibody potency.

For `CC[C@H](Nc1ncnc2[nH]cnc12)c1nc2cccc(F)c2c(=O)n1-c1ccccc1` [Compound B, (S)-2-(1-((9H-purin-6-yl)amino)propyl)-5-fluoro-3-phenylquinazolin-4(3H)-one], the “reduced p-S6 levels vs vehicle” value (pS6 Ser235/236; 0.1 μM 2 h) was 13%, the “reduced p-S6 levels vs vehicle” value (pS6 Ser235/236; 1.0 μM 2 h) was 28% and the “reduced p-S6 levels vs vehicle” value (pS6 Ser235/236; 2.0 μM 2 h) was 48%. The “basal p-S6RP level vs untreated cells” value (pS6RP Ser235/236 [1]) was “reduced levels”, the “p-S6RP (table title: percentage of Annexin-V positive cells)” value (pS6RP Ser235/236 [2]; 0.02 μM) was 61% and 69% and 64% and the “normalized percentage of TPO-activated S6RP phosphorylation (p-S6RP)” value (from here on “normalized percentage … (p-S6RP)”) (pS6RP Ser235/236 [2]; 0.02 μM, naïve MF patients) was 57% and 50% and 86%. The “normalized percentage … (p-S6RP)” value (pS6RP Ser235/236 [2]; 0.02 μM, rux-treated MF patients) was 55% and 79% and 60% and 59% and 53% and 62%, the “p-S6RP (table title: percentage of Annexin-V positive cells)” value (pS6RP Ser235/236 [2]; 0.2 μM) was 52% and 54% and 42% and the “normalized percentage … (p-S6RP)” value (pS6RP Ser235/236 [2]; 0.2 μM, naïve MF patients) was 48% and 42% and 69%. For the same compound, the “normalized percentage … (p-S6RP)” value (pS6RP Ser235/236 [2]; 0.2 μM, rux-treated MF patients) was 35% and 56% and 55% and 50% and 32% and 44%, the “p-S6RP (table title: percentage of Annexin-V positive cells)” value (pS6RP Ser235/236 [2]; 2.0 μM) was 30% and 34% and 25% and the “selectivity among PI3K isoforms” value (PI3Kδ) was “selective inhibitor to PI3Kδ”. For the same compound, the “inhibition to PI3Kδ compared to PI3Kα” value (PI3Kδ; steady-state ATP) was 450 fold, the “inhibition to PI3Kδ compared to PI3Kβ” value (PI3Kδ; steady-state ATP) was 210 fold and the “inhibition to PI3Kδ compared to PI3Kγ” value (PI3Kδ; steady-state ATP) was 110 fold. For the same compound, the “Percentage of B-cell depletion WB” value (autologous B cells; Compound B alone 100 nM) was 5% and −1% and −3%, the “Percentage of B-cell depletion WB” value (autologous B cells; Compound B alone 760 nM) was −1% and −4% and the “Percentage of B-cell depletion WB” value (autologous B cells; Compound B alone 4200 nM) was 0% and 1% and 5%.
